# Paper PMC9569420 (Communications Biology, 2022)
# Experiments:
# CDK4/cyclin D3 = target: T1, CDK4/cyclin D3 (Homo sapiens, UniProt P11802); assay: HotSpot kinase assay; format: biochemical; settings: read-out: % Enzyme Activity (relative to DMSO controls)
# T1 construct: purchased Reaction Biology Corporation
# DAPK1 = target: T2, DAPK1 (Homo sapiens, UniProt P53355); assay: HotSpot kinase assay; format: biochemical; settings: read-out: % Enzyme Activity (relative to DMSO controls)
# T2 construct: purchased Reaction Biology Corporation
# ULK1 = target: T3, ULK1 (Homo sapiens, UniProt O75385); assay: biochemical; settings: read-out: % Enzyme Activity (relative to DMSO controls)
# T3 construct: purchased Reaction Biology Corporation
# MLCK/MYLK = target: T4, MLCK/MYLK (Homo sapiens, UniProt Q15746); assay: HotSpot kinase assay; format: biochemical; settings: read-out: % Enzyme Activity (relative to DMSO controls)
# T4 construct: purchased Reaction Biology Corporation
# MNK1 = target: T5, MNK1 (Homo sapiens, UniProt Q9BUB5); assay: HotSpot kinase assay; format: biochemical; settings: read-out: % Enzyme Activity (relative to DMSO controls)
# T5 construct: purchased Reaction Biology Corporation
# T5 sequence (Q9BUB5 whole entry): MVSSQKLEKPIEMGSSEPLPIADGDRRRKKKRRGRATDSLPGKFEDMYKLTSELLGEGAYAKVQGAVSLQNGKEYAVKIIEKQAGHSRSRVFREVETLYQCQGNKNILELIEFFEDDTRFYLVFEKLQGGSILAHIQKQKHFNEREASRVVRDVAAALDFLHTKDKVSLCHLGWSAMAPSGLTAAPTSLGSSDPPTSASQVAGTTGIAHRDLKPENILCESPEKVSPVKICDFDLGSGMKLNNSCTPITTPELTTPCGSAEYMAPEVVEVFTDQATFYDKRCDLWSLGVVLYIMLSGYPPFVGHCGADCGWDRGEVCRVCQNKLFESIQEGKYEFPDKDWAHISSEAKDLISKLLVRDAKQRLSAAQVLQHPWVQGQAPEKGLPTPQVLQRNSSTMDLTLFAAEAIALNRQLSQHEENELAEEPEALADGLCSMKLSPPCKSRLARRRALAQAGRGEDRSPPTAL
# CAMK2g = target: T6, CAMK2g (Homo sapiens, UniProt Q13555); assay: HotSpot kinase assay; format: biochemical; settings: read-out: % Enzyme Activity (relative to DMSO controls)
# T6 construct: purchased Reaction Biology Corporation
# PKCnu/PRKD3 = target: T7, PKCnu/PRKD3 (Homo sapiens, UniProt O94806); assay: HotSpot kinase assay; format: biochemical; settings: read-out: % Enzyme Activity (relative to DMSO controls)
# T7 construct: purchased Reaction Biology Corporation
# T7 sequence (O94806 whole entry): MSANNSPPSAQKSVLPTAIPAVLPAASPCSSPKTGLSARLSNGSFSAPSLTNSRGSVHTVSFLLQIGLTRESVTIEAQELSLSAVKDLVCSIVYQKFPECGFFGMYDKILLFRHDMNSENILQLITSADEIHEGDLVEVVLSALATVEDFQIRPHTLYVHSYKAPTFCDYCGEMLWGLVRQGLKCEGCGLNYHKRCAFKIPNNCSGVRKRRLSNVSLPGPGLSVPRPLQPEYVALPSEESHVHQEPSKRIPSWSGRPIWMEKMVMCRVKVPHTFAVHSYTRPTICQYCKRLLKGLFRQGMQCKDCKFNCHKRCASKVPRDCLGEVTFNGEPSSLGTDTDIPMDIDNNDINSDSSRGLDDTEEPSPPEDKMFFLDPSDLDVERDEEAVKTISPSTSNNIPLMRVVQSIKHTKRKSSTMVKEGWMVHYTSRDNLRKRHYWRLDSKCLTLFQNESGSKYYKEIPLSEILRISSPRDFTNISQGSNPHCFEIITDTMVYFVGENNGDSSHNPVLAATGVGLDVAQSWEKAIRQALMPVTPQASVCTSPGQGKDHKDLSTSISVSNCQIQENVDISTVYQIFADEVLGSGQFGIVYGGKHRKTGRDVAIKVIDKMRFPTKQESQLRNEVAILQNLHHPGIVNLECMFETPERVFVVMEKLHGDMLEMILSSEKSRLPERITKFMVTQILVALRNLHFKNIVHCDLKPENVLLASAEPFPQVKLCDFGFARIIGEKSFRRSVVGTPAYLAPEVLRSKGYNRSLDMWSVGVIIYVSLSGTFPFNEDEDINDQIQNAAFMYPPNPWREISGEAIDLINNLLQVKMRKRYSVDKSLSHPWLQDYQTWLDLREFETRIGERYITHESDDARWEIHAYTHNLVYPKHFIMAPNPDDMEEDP
# DYRK1B = target: T8, DYRK1B (Homo sapiens, UniProt Q9Y463); assay: HotSpot kinase assay; format: biochemical; settings: read-out: % Enzyme Activity (relative to DMSO controls)
# T8 construct: purchased Reaction Biology Corporation
# RSK4 = target: T9, RSK4 (Homo sapiens, UniProt Q9UK32); assay: HotSpot kinase assay; format: biochemical; settings: read-out: % Enzyme Activity (relative to DMSO controls)
# T9 construct: purchased Reaction Biology Corporation
# T9 sequence (Q9UK32 whole entry): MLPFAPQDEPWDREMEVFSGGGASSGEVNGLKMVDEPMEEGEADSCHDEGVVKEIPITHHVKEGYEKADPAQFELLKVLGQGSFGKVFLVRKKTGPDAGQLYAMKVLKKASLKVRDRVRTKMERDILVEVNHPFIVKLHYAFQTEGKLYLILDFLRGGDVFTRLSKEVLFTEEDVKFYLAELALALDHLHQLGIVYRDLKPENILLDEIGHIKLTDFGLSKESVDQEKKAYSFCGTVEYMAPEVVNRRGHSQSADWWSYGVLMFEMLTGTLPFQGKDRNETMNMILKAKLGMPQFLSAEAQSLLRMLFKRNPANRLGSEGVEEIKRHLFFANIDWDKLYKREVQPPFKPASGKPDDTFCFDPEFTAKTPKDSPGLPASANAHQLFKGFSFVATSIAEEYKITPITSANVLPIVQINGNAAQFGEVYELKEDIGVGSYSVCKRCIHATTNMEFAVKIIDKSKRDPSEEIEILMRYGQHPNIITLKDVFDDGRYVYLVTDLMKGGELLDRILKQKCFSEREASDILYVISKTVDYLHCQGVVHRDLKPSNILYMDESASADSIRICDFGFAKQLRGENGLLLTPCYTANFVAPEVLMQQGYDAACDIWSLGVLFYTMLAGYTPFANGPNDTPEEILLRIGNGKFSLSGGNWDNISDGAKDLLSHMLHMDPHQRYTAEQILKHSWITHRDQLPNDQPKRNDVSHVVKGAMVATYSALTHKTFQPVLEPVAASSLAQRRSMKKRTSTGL
# KSR1 = target: T10, KSR1 (Homo sapiens, UniProt Q8IVT5); assay: biochemical; settings: read-out: % Enzyme Activity (relative to DMSO controls)
# T10 construct: purchased Reaction Biology Corporation
# EGFR = target: T11, EGFR (Homo sapiens, UniProt P00533); assay: biochemical
# T11 construct: purchased Reaction Biology Corporation
# T11 sequence (P00533 25-1210): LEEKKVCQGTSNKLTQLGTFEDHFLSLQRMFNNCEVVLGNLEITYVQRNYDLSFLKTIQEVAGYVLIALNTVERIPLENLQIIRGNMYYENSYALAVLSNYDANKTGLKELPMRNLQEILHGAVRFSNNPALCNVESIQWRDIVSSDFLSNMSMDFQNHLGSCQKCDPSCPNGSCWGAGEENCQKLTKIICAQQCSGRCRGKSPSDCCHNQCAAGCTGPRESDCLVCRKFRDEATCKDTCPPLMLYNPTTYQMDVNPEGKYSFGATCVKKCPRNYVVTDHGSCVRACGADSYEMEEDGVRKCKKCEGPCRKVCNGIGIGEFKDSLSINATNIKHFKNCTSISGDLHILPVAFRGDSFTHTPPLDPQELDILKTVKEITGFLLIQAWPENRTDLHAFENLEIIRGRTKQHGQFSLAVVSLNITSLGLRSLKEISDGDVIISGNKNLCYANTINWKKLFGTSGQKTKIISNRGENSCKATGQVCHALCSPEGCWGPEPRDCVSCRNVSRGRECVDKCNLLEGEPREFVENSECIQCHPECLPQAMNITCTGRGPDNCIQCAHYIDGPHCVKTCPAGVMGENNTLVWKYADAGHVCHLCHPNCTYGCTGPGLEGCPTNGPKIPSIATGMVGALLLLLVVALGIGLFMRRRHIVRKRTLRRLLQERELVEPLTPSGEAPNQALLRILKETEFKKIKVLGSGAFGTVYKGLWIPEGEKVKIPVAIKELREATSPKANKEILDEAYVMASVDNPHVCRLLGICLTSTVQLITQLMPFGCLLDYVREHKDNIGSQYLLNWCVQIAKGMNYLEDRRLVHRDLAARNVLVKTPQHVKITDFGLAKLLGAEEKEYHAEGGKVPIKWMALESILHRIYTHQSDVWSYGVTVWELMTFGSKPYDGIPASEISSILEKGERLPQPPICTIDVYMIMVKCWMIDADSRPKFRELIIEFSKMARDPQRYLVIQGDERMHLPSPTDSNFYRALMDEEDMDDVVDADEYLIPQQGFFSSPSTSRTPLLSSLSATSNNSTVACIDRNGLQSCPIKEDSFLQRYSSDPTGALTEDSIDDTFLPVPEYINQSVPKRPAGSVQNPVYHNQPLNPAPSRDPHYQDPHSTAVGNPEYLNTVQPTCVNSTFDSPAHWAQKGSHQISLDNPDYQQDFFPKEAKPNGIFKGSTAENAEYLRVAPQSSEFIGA
# LCK = target: T12, LCK (Homo sapiens, UniProt P06239); assay: HotSpot kinase assay; format: biochemical; settings: read-out: % Enzyme Activity (relative to DMSO controls)
# T12 construct: purchased Reaction Biology Corporation
# FLT1/VEGFR1 = target: T13, FLT1/VEGFR1 (Homo sapiens, UniProt P17948); assay: HotSpot kinase assay; format: biochemical; settings: read-out: % Enzyme Activity (relative to DMSO controls)
# T13 construct: purchased Reaction Biology Corporation
# DMPK2 = target: T14, DMPK2 (Homo sapiens, UniProt Q6DT37); assay: HotSpot kinase assay; format: biochemical; settings: read-out: % Enzyme Activity (relative to DMSO controls)
# T14 construct: purchased Reaction Biology Corporation
# HSV-2(G) = assay: HSV plaque assay, primary vaginal cells; format: cell-based; settings: Human alphaherpesvirus 2, read-out: inhibition of HSV-2 infection
# Experimental: After 48 h incubation, plaques were counted by immunoassay using an anti–human IgG antibody peroxidase conjugate (PA1-86064, Thermo Fisher)[33]. […] Western blots were prepared and probed for gD as a marker of bound virus and β-actin as a control.
# MARK4 = target: T15, MARK4 (Homo sapiens, UniProt Q96L34); assay: HotSpot kinase assay; format: biochemical; settings: read-out: % Enzyme Activity (relative to DMSO controls)
# T15 construct: purchased Reaction Biology Corporation
# c-MET = target: T16, c-MET (Homo sapiens, UniProt P08581); assay: biochemical; settings: read-out: % Enzyme Activity (relative to DMSO controls)
# T16 construct: purchased Reaction Biology Corporation
# CDK5/P25 = target: T17, CDK5/P25 (Homo sapiens, UniProt Q00535); assay: HotSpot kinase assay; format: biochemical; settings: read-out: % Enzyme Activity (relative to DMSO controls)
# T17 construct: purchased Reaction Biology Corporation
# p70S6K/RPS6KB1 = target: T18, p70S6K/RPS6KB1 (Homo sapiens, UniProt P23443); assay: HotSpot kinase assay; format: biochemical; settings: read-out: % Enzyme Activity (relative to DMSO controls)
# T18 construct: purchased Reaction Biology Corporation
# ALK2/ACVR1 = target: T19, ALK2/ACVR1 (Homo sapiens, UniProt Q04771); assay: HotSpot kinase assay; format: biochemical; settings: read-out: % Enzyme Activity (relative to DMSO controls)
# T19 construct: purchased Reaction Biology Corporation
# MAPKAPK5/PRAK = target: T20, MAPKAPK5/PRAK (Homo sapiens, UniProt Q8IW41); assay: HotSpot kinase assay; format: biochemical; settings: read-out: % Enzyme Activity (relative to DMSO controls)
# T20 construct: purchased Reaction Biology Corporation
# MASTL = target: T21, MASTL (Homo sapiens, UniProt Q96GX5); assay: HotSpot kinase assay; format: biochemical; settings: read-out: % Enzyme Activity (relative to DMSO controls)
# T21 construct: purchased Reaction Biology Corporation
# EPHA2 = target: T22, EPHA2 (Homo sapiens, UniProt P29317); assay: HotSpot kinase assay; format: biochemical; settings: read-out: % Enzyme Activity (relative to DMSO controls)
# T22 construct: purchased Reaction Biology Corporation
# VSV-S = format: cell-based, VSV pseudotyped with SARS-CoV-2 spike
# PKG2/PRKG2 = target: T23, PKG2/PRKG2 (Homo sapiens, UniProt Q13237); assay: HotSpot kinase assay; format: biochemical; settings: read-out: % Enzyme Activity (relative to DMSO controls)
# T23 construct: purchased Reaction Biology Corporation
# SIK2 = target: T24, SIK2 (Homo sapiens, UniProt Q9H0K1); assay: HotSpot kinase assay; format: biochemical; settings: read-out: % Enzyme Activity (relative to DMSO controls)
# T24 construct: purchased Reaction Biology Corporation
# EPHA1 = target: T25, EPHA1 (Homo sapiens, UniProt P21709); assay: HotSpot kinase assay; format: biochemical; settings: read-out: % Enzyme Activity (relative to DMSO controls)
# T25 construct: purchased Reaction Biology Corporation
# TSSK2 = target: T26, TSSK2 (Homo sapiens, UniProt Q96PF2); assay: HotSpot kinase assay; format: biochemical; settings: read-out: % Enzyme Activity (relative to DMSO controls)
# T26 construct: purchased Reaction Biology Corporation
# BMX/ETK = target: T27, BMX/ETK (Homo sapiens, UniProt P51813); assay: HotSpot kinase assay; format: biochemical; settings: read-out: % Enzyme Activity (relative to DMSO controls)
# T27 construct: purchased Reaction Biology Corporation
# T27 sequence (P51813 whole entry): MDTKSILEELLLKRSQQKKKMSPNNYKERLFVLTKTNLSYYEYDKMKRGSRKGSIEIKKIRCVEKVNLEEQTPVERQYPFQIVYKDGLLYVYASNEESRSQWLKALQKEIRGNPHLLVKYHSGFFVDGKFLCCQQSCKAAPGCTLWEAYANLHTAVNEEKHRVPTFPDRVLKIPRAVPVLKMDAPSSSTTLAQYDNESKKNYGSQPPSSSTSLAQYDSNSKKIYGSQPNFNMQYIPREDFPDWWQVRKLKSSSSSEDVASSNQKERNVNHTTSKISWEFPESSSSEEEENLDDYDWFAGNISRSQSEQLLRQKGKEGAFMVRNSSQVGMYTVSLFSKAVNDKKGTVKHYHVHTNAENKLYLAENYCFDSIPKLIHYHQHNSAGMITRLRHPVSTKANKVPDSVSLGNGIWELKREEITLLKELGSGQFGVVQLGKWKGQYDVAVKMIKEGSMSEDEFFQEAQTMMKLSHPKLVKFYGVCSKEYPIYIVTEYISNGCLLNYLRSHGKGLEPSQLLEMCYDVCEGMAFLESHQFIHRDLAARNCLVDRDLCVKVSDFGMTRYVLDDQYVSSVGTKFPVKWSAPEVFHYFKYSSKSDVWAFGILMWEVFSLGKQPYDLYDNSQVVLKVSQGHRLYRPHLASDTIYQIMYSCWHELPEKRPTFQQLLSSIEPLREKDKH
# EIF2AK4 = target: T28, EIF2AK4 (Homo sapiens, UniProt Q9P2K8); assay: HotSpot kinase assay; format: biochemical; settings: read-out: % Enzyme Activity (relative to DMSO controls)
# T28 construct: purchased Reaction Biology Corporation
# ROCK1 = target: T29, ROCK1 (Homo sapiens, UniProt Q13464); assay: HotSpot kinase assay; format: biochemical; settings: read-out: % Enzyme Activity (relative to DMSO controls)
# T29 construct: purchased Reaction Biology Corporation
# EPHB4 = target: T30, EPHB4 (Homo sapiens, UniProt P54760); assay: HotSpot kinase assay; format: biochemical; settings: read-out: % Enzyme Activity (relative to DMSO controls)
# T30 construct: purchased Reaction Biology Corporation
# STK33 = target: T31, STK33 (Homo sapiens, UniProt Q9BYT3); assay: HotSpot kinase assay; format: biochemical; settings: read-out: % Enzyme Activity (relative to DMSO controls)
# T31 construct: purchased Reaction Biology Corporation
# FGR = target: T32, FGR (Homo sapiens, UniProt P09769); assay: HotSpot kinase assay; format: biochemical; settings: read-out: % Enzyme Activity (relative to DMSO controls)
# T32 construct: purchased Reaction Biology Corporation
# SGK2 = target: T33, SGK2 (Homo sapiens, UniProt Q9HBY8); assay: HotSpot kinase assay; format: biochemical; settings: read-out: % Enzyme Activity (relative to DMSO controls)
# T33 construct: purchased Reaction Biology Corporation
# LATS1 = target: T34, LATS1 (Homo sapiens, UniProt O95835); assay: HotSpot kinase assay; format: biochemical; settings: read-out: % Enzyme Activity (relative to DMSO controls)
# T34 construct: purchased Reaction Biology Corporation
# T34 sequence (O95835 whole entry): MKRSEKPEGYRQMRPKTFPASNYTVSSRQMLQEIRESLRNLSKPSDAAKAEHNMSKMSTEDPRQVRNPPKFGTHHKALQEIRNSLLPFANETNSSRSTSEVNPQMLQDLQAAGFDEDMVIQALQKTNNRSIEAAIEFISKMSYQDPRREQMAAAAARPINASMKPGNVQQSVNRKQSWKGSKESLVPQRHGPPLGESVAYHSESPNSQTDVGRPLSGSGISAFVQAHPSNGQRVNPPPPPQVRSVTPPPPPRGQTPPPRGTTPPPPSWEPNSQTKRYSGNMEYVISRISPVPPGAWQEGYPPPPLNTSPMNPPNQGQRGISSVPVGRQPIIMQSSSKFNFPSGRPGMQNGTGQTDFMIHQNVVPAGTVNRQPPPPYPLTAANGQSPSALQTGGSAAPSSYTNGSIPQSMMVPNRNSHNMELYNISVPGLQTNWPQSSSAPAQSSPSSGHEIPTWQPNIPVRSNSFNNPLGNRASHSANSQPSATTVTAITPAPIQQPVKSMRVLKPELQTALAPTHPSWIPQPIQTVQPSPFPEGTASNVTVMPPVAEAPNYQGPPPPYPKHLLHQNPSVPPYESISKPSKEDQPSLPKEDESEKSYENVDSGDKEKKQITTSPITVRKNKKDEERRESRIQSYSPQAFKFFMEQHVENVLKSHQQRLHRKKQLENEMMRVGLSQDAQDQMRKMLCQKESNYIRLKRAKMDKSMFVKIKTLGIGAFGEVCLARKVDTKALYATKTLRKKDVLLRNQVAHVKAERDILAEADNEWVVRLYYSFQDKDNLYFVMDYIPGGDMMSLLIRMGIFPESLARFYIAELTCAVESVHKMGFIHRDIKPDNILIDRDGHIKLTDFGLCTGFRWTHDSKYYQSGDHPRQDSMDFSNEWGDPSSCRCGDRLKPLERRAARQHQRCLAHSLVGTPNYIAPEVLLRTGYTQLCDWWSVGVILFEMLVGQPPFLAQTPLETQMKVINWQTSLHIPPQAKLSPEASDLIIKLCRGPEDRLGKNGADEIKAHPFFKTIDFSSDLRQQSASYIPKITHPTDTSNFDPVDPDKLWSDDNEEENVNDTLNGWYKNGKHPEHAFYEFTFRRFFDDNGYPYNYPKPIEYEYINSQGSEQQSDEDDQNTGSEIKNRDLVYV
smiles,measurement,setting,value
CO[C@@H]1[C@H](N(C)C(=O)CCC(=O)NCc2cn(CCCS(=O)(=O)O)nn2)C[C@H]2O[C@]1(C)n1c3ccccc3c3c4c(c5c6ccccc6n2c5c31)C(=O)NC4 [CIMSS],remaining activity at 10 µM,CDK4/cyclin D3,85.6%
same,remaining activity at 10 µM,DAPK1,13.6%
same,remaining activity at 10 µM,ULK1,13.6%
same,remaining activity at 10 µM,MLCK/MYLK,15.5%
same,remaining activity at 10 µM,MNK1,42.6%
same,remaining activity at 10 µM,CAMK2g,1.25%
same,remaining activity at 10 µM,PKCnu/PRKD3,11.4%
same,remaining activity at 10 µM,DYRK1B,0.41%
same,remaining activity at 10 µM,RSK4,6.64%
same,remaining activity at 10 µM,KSR1,90.8%
same,IC50,"EGFR; Supplementary Table 1, read-out: IC50 (Molar concentration)",1610 nM
same,remaining activity at 10 µM,"EGFR; read-out: % Enzyme Activity (relative to DMSO controls), 10µM",17.4%
same,remaining activity at 10 µM,LCK,3.41%
same,remaining activity at 10 µM,FLT1/VEGFR1,2.92%
same,remaining activity at 10 µM,DMPK2,10.9%
same,inhibition at 10 µM,HSV-2(G),> 75%
same,remaining activity at 10 µM,MARK4,0.77%
same,remaining activity at 10 µM,c-MET,12.4%
same,remaining activity at 10 µM,CDK5/P25,7.17%
same,remaining activity at 10 µM,p70S6K/RPS6KB1,5.46%
same,remaining activity at 10 µM,ALK2/ACVR1,72.7%
same,remaining activity at 10 µM,MAPKAPK5/PRAK,85.2%
same,remaining activity at 10 µM,MASTL,33.8%
same,remaining activity at 10 µM,EPHA2,33.5%
same,VSV-S infection,VSV-S,inhibited
same,remaining activity at 10 µM,PKG2/PRKG2,1.99%
same,remaining activity at 10 µM,SIK2,1.49%
same,remaining activity at 10 µM,EPHA1,31.5%
same,remaining activity at 10 µM,TSSK2,21.2%
same,remaining activity at 10 µM,BMX/ETK,2.19%
same,remaining activity at 10 µM,EIF2AK4,9.5%
same,remaining activity at 10 µM,ROCK1,26.2%
same,remaining activity at 10 µM,EPHB4,19.4%
same,remaining activity at 10 µM,STK33,9.17%
same,remaining activity at 10 µM,FGR,1.68%
same,remaining activity at 10 µM,SGK2,22.6%
same,remaining activity at 10 µM,LATS1,9.89%
